Results taken from ChEMBL document CHEMBL1909046, “DrugMatrix in vitro pharmacology data”.
pIC50, pKi: −log10 of the molar value.

What was measured:
[1] = target: 5-hydroxytryptamine receptor 2B (Homo sapiens, UniProt P41595); format: cell membranes, CHO-K1, Membrane; conditions: for IC50: cho-k1; for pIC50: read-out: IC50; for pKi: read-out: Ki; as to all read-outs here: in other assays of this panel Not Active means under 50% inhibition at 10 µM
[2] = target: Carbonic anhydrase 2 (Homo sapiens, UniProt P00918); experiment: DRUGMATRIX: Carbonic Anhydrase II enzyme inhibition (substrate: 4-Nitrophenyl acetate (4-NPA)); format: tissue-based, Erythrocyte; conditions: erythrocyte; Not Active = under 50% inhibition at 10 µM
[3] = target: T1, 3-hydroxy-3-methylglutaryl-coenzyme A reductase (Homo sapiens, UniProt P04035); design: species or system Escherichia coli;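 also: enzyme inhibition assay of HMG-CoA reductase using radiolabeled [14C]HMG-CoA as substrate; in other assays of this panel Not Active means under 50% inhibition at 10 µM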
T1 sequence (P04035 whole entry): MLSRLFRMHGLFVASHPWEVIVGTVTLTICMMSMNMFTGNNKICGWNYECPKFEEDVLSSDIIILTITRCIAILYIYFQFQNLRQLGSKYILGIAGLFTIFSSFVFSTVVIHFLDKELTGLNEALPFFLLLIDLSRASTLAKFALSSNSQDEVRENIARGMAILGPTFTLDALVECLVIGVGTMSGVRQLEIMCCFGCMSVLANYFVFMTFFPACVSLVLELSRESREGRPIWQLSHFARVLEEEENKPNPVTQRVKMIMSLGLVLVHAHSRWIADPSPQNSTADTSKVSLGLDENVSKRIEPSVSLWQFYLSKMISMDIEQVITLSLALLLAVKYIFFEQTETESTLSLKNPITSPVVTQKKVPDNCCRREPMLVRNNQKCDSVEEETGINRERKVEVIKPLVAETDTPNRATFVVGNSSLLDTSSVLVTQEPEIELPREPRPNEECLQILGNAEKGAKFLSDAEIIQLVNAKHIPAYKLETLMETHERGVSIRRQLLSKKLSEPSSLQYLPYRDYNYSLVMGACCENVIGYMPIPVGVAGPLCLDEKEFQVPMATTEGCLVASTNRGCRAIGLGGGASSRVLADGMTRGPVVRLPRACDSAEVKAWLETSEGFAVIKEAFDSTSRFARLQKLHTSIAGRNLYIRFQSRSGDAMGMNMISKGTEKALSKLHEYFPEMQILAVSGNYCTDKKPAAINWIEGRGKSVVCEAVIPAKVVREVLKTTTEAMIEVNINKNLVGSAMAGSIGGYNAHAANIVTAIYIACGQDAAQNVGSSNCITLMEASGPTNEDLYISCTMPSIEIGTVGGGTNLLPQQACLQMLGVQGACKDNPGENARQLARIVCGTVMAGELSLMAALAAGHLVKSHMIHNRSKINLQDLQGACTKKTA

[4] = target: Melanocortin receptor 3 (Homo sapiens, UniProt P41968); format: cell membranes, HEK293, Membrane; conditions: hek293; also: in other assays of this panel Not Active means under 50% inhibition at 10 µM
Sequence of Melanocortin receptor 3 (P41968 whole entry): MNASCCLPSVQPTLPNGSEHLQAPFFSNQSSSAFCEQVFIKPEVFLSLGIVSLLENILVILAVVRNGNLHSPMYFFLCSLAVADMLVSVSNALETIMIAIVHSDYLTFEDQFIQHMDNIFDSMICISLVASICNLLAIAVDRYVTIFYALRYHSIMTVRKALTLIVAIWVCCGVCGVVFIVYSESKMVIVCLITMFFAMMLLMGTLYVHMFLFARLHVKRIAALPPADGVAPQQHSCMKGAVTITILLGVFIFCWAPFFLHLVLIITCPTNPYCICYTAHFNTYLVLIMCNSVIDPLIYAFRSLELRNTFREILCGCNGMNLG

[5] = target: T2, 5-hydroxytryptamine receptor 1A (Rattus norvegicus, UniProt P19327); format: cell membranes, CHO-K1, Membrane; conditions: for IC50: cho-k1; for pIC50: read-out: IC50; for pKi: read-out: Ki; as to all read-outs here: in other assays of this panel Not Active means under 50% inhibition at 10 µM
T2 sequence (P19327 whole entry): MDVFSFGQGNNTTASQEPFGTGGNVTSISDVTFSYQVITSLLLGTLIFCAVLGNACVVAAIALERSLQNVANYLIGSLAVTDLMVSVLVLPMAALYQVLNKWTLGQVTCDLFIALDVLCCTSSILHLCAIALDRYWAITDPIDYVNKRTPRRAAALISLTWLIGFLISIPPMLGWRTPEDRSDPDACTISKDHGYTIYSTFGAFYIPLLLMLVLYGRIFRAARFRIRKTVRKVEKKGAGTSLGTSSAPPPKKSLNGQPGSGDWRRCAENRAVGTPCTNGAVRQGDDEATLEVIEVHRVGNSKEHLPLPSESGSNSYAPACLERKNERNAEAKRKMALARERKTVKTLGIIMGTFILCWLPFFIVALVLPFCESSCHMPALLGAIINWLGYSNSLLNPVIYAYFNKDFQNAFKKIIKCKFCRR

[6] = target: T3, Cytochrome P450 1A2 (Homo sapiens, UniProt P05177); conditions: bti-tn-5b1-4; also: in other assays of this panel Not Active means under 50% inhibition at 10 µM
T3 sequence (P05177 whole entry): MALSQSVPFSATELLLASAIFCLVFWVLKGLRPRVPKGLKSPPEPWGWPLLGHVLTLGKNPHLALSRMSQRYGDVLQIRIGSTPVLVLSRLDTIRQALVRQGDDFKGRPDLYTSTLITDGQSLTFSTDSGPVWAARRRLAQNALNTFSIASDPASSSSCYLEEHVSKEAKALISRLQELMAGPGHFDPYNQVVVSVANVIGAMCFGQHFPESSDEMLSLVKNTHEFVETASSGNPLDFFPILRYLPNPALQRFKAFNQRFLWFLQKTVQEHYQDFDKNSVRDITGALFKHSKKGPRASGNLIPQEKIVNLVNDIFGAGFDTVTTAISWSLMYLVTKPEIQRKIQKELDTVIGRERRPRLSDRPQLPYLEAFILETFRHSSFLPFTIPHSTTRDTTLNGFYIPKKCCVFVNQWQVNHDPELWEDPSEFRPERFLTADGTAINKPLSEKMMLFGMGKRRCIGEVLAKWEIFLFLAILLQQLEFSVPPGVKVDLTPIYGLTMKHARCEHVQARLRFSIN

Sequence of 5-hydroxytryptamine receptor 2B (P41595 whole entry): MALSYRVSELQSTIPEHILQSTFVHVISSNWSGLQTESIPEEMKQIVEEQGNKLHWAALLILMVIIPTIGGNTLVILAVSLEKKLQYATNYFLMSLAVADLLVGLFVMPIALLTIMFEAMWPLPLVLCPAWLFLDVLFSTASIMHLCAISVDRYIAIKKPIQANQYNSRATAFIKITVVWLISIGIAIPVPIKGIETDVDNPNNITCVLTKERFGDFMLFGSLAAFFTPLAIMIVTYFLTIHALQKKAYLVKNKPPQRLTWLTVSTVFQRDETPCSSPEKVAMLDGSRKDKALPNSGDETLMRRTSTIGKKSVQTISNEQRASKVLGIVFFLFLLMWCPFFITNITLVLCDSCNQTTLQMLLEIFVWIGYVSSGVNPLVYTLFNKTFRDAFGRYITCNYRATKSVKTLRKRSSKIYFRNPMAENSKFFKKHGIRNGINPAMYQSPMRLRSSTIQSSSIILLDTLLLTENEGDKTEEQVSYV

Row | Compound | IC50 [1] | IC50 [2] | IC50 [3] | IC50 [4] | IC50 [5] | IC50 [6] | Ki [6] | pIC50 [1] | pKi [1] | pIC50 [5] | pKi [5]
1 | CC[C@H]1OC(=O)[C@H](C)[C@@H](O[C@H]2C[C@@](C)(OC)[C@@H](O)[C@H](C)O2)[C@H](C)[C@@H](O[C@@H]2O[C@H](C)C[C@H](N(C)C)[C@H]2O)[C@](C)(O)C[C@@H](C)C(=O)[C@H](C)[C@@H](O)[C@]1(C)O [ERYTHROMYCIN] | Not Active | Not Active | Not Active | Not Active | Not Active | Not Active | Not Active |  |  |  | 
2 | COc1cc([C@@H]2c3cc4c(cc3[C@H](O)[C@H]3COC(=O)[C@H]23)OCO4)cc(OC)c1OC [PODOFILOX] | Not Active | Not Active | Not Active | Not Active | Not Active | Not Active | Not Active |  |  |  | 
3 | O=C(O)COC(=O)Cc1ccccc1Nc1c(Cl)cccc1Cl [ACECLOFENAC] | Not Active | Not Active | Not Active | Not Active | Not Active | Not Active | Not Active |  |  |  | 
4 | COC(=O)Nc1nc2ccc(Sc3ccccc3)cc2[nH]1 [FENBENDAZOLE] | Not Active | Not Active | Not Active | Not Active | Not Active | Not Active | Not Active |  |  |  | 
5 | Cc1c(N)nc([C@H](CC(N)=O)NC[C@H](N)C(N)=O)nc1C(=O)N[C@H](C(=O)N[C@H](C)[C@@H](O)[C@H](C)C(=O)N[C@H](C(=O)NCCc1nc(-c2nc(C(=O)NCCC[S+](C)C)cs2)cs1)[C@@H](C)O)[C@@H](O[C@@H]1O[C@@H](CO)[C@@H](O)[C@H](O)[C@@H]1O[C@H]1O[C@H](CO)[C@@H](O)[C@H](OC(N)=O)[C@@H]1O)c1c[nH]cn1.[Br-] [BLEOMYCIN A2] | Not Active | Not Active | Not Active | Not Active | Not Active | Not Active | Not Active |  |  |  | 
6 | C#C[C@]1(O)CC[C@H]2[C@@H]3CCC4=CC(=O)CC[C@@H]4[C@H]3CC[C@@]21C [NORETHINDRONE] | Not Active | Not Active | Not Active | Not Active | Not Active | Not Active | Not Active |  |  |  | 
7 | CC(CN1c2ccccc2Sc2ccccc21)N(C)C (centres undefined) [PROMETHAZINE] |  | Not Active | Not Active | Not Active |  | Not Active | Not Active | 7.17 | 7.37 | 5.59 | 5.83
8 | CCCCCCNC(=O)n1cc(F)c(=O)[nH]c1=O [CARMOFUR] | Not Active | Not Active | Not Active | Not Active | Not Active | Not Active | Not Active |  |  |  | 
9 | Cc1cc(C(C)(C)C)c(O)c(C)c1CC1=NCCN1 [OXYMETAZOLINE] |  | Not Active | Not Active | Not Active |  | Not Active | Not Active | 5.51 | 5.71 | 8.25 | 8.49
10 | C=C(Cl)Cl [1,1-DICHLOROETHENE] | Not Active | Not Active | Not Active | Not Active | Not Active | Not Active | Not Active |  |  |  | 
11 | CC(=O)[C@]1(O)Cc2c(O)c3c(c(O)c2[C@@H](O[C@H]2C[C@H](N)[C@H](O)[C@H](C)O2)C1)C(=O)c1ccccc1C3=O [IDARUBICIN] | Not Active | Not Active | Not Active | Not Active | Not Active | Not Active | Not Active |  |  |  | 
12 | Oc1ccccc1 [PHENOL] | Not Active | Not Active | Not Active | Not Active | Not Active | Not Active | Not Active |  |  |  | 
13 | O=C(Nc1ccc(Cl)c(Cl)c1)c1cc(Cl)cc(Cl)c1O [3,3',4',5-TETRACHLOROSALICYLANILIDE] | Not Active | Not Active | Not Active | Not Active | Not Active | Not Active | Not Active |  |  |  | 
14 | C[N+](C)(C)CCOC(N)=O.[Cl-] [CARBACHOL] | Not Active | Not Active | Not Active | Not Active | Not Active | Not Active | Not Active |  |  |  | 
15 | Oc1ncnc2[nH]ncc12 [ALLOPURINOL] | Not Active | Not Active | Not Active | Not Active | Not Active | Not Active | Not Active |  |  |  | 
